Laboratory results: ChEMBL document CHEMBL1201862, “PubChem BioAssay data set” (2004)
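Exposure lasted 48 hours, with cells grown in 96-well plates and compounds tested at five concentrations. GI50: concentration for 50% inhibition of growth.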 Activity calls are given as the source filed them. Cut-off read from the data, not from the text of the source: active = GI50 up to about 1.1 µM and inactive = higher.

Experiments:
Assay in all cases: inhibition of tumour cell growth, NCI panel, 48 h
OVCAR-4 = test system: OVCAR-4
KM12 = test system: KM12
EKVX = test system: EKVX
M14 = test system: M14
786-0 = test system: 786-0
UACC-62 = test system: UACC-62
MDA-MB-231 = test system: MDA-MB-231
IGROV-1 = test system: IGROV-1
NCI-H522 = test system: NCI-H522
RPMI-8226 = test system: RPMI-8226
U-251 = test system: U-251
SK-MEL-28 = test system: SK-MEL-28
NCI-H23 = test system: NCI-H23
HCC 2998 = test system: HCC 2998
SN12C = test system: SN12C
DU-145 = test system: DU-145
HT-29 = test system: HT-29
RXF 393 = test system: RXF 393
HOP-92 = test system: HOP-92
SF-539 = test system: SF-539

SMILES | GI50 (OVCAR-4) | GI50 (KM12) | GI50 (EKVX) | GI50 (M14) | GI50 (786-0) | GI50 (UACC-62) | GI50 (MDA-MB-231) | GI50 (IGROV-1) | GI50 (NCI-H522) | GI50 (RPMI-8226) | GI50 (U-251) | GI50 (SK-MEL-28) | GI50 (NCI-H23) | GI50 (HCC 2998) | GI50 (SN12C) | GI50 (DU-145) | GI50 (HT-29) | GI50 (RXF 393) | GI50 (HOP-92) | GI50 (SF-539)
Cc1c(CN2CCOCC2)c(CN2CCOCC2)c(C)n1-c1ccc(Cl)cn1 | > 100 µM (inactive) | > 100 µM (inactive) | > 100 µM (inactive) | > 100 µM (inactive) | > 100 µM (inactive) | > 100 µM (inactive) | > 100 µM (inactive) | > 100 µM (inactive) | > 100 µM (inactive) | > 100 µM (inactive) | > 100 µM (inactive) | > 100 µM (inactive) | > 100 µM (inactive) | > 100 µM (inactive) | > 100 µM (inactive) | > 100 µM (inactive) | > 100 µM (inactive) | > 100 µM (inactive) | – | –
CCCNC1=Nc2ccccc2NC(C)C1 (stereo not drawn) | > 100 µM (inactive) | > 100 µM (inactive) | > 100 µM (inactive) | > 100 µM (inactive) | > 100 µM (inactive) | > 100 µM (inactive) | > 100 µM (inactive) | > 100 µM (inactive) | > 100 µM (inactive) | > 100 µM (inactive) | > 100 µM (inactive) | > 100 µM (inactive) | > 100 µM (inactive) | – | > 100 µM (inactive) | > 100 µM (inactive) | > 100 µM (inactive) | > 100 µM (inactive) | – | –
CC[C@H]1OC([C@H](O)C/C=C\C#C[Si](C)(C)C)C/C=C\C[C@H]1O[Si](C)(C)C(C)(C)C (stereo partly drawn) | > 100 µM (inactive) | > 100 µM (inactive) | > 100 µM (inactive) | > 100 µM (inactive) | > 100 µM (inactive) | > 100 µM (inactive) | > 100 µM (inactive) | > 100 µM (inactive) | 40.9 µM (inactive) | 37.8 µM (inactive) | > 100 µM (inactive) | > 100 µM (inactive) | > 100 µM (inactive) | > 100 µM (inactive) | > 100 µM (inactive) | > 100 µM (inactive) | > 100 µM (inactive) | > 100 µM (inactive) | – | –
CCCCOC(=O)CNC(=O)OC/C=C/C#CC#C/C=C/COC(=O)NCC(=O)OCCCC | > 10 µM (inactive) | > 10 µM (inactive) | > 10 µM (inactive) | > 10 µM (inactive) | 68.7 µM (inactive) | > 10 µM (inactive) | – | > 10 µM (inactive) | > 10 µM (inactive) | > 10 µM (inactive) | > 10 µM (inactive) | > 10 µM (inactive) | > 10 µM (inactive) | > 10 µM (inactive) | > 10 µM (inactive) | – | > 10 µM (inactive) | > 10 µM (inactive) | > 10 µM (inactive) | > 10 µM (inactive)
c1ccc2sc(C3(N4CCCCC4)CCCC3)cc2c1 | 9.02 µM (inactive) | 7.01 µM (inactive) | 7.14 µM (inactive) | 15.1 µM (inactive) | 9.93 µM (inactive) | 15.5 µM (inactive) | – | 10.6 µM (inactive) | 11.4 µM (inactive) | 2.38 µM (inactive) | – | 14.6 µM (inactive) | 4.06 µM (inactive) | 3.85 µM (inactive) | 13.5 µM (inactive) | 11.3 µM (inactive) | 3.24 µM (inactive) | 14.1 µM (inactive) | 11.2 µM (inactive) | 16.1 µM (inactive)
N#C[C@@H](c1ccccn1)c1ncccc1[N+](=O)[O-] | > 100 µM (inactive) | – | > 100 µM (inactive) | > 100 µM (inactive) | > 100 µM (inactive) | > 100 µM (inactive) | > 100 µM (inactive) | > 100 µM (inactive) | > 100 µM (inactive) | > 100 µM (inactive) | > 100 µM (inactive) | > 100 µM (inactive) | > 100 µM (inactive) | > 100 µM (inactive) | > 100 µM (inactive) | > 100 µM (inactive) | > 100 µM (inactive) | > 100 µM (inactive) | – | –
O=C(O/N=c1/ccc(=O)/c(=N\OC(=O)c2ccccc2)c1=O)c1ccccc1 | > 100 µM (inactive) | > 100 µM (inactive) | > 100 µM (inactive) | > 100 µM (inactive) | > 100 µM (inactive) | – | – | 89.3 µM (inactive) | > 100 µM (inactive) | 79.8 µM (inactive) | > 100 µM (inactive) | > 100 µM (inactive) | > 100 µM (inactive) | > 100 µM (inactive) | > 100 µM (inactive) | – | > 100 µM (inactive) | > 100 µM (inactive) | > 100 µM (inactive) | > 100 µM (inactive)
CC1(c2cccc(N)c2)C2C(=O)NC(=O)C1C(=O)NC2=O (stereo not drawn) | 36.7 µM (inactive) | 23.6 µM (inactive) | 45 µM (inactive) | 36.7 µM (inactive) | 38.3 µM (inactive) | 33.3 µM (inactive) | – | 44.3 µM (inactive) | 19.7 µM (inactive) | 16 µM (inactive) | – | 38.6 µM (inactive) | 22.1 µM (inactive) | 52.2 µM (inactive) | 29 µM (inactive) | – | 29.4 µM (inactive) | 26.1 µM (inactive) | 22.9 µM (inactive) | 28.6 µM (inactive)
COc1cc2c(cc1OC)C1(COc3cc(O)c(O)c(O)c3C1=O)C2 (stereo not drawn) | > 50 µM (inactive) | > 50 µM (inactive) | – | > 50 µM (inactive) | > 50 µM (inactive) | > 50 µM (inactive) | > 50 µM (inactive) | > 50 µM (inactive) | > 50 µM (inactive) | > 50 µM (inactive) | > 50 µM (inactive) | > 50 µM (inactive) | 45.4 µM (inactive) | – | > 50 µM (inactive) | > 50 µM (inactive) | > 50 µM (inactive) | > 50 µM (inactive) | – | > 50 µM (inactive)
O=c1c2ccccc2[nH]c2c(Cl)cc(Cl)c(NC3CCCCC3)c12 | 41.2 µM (inactive) | 14.8 µM (inactive) | 23 µM (inactive) | 18.6 µM (inactive) | 31.3 µM (inactive) | 16.6 µM (inactive) | 29 µM (inactive) | 18.2 µM (inactive) | 20.1 µM (inactive) | 28.3 µM (inactive) | 16.7 µM (inactive) | 27 µM (inactive) | 17 µM (inactive) | 25.1 µM (inactive) | 24.4 µM (inactive) | – | 16.3 µM (inactive) | – | – | 23.2 µM (inactive)
Cc1c(Cl)cccc1N1C(=O)C(Cl)=C(Cl)C1=O | > 100 µM (inactive) | > 100 µM (inactive) | > 100 µM (inactive) | > 100 µM (inactive) | 98.6 µM (inactive) | > 100 µM (inactive) | – | > 100 µM (inactive) | 13.5 µM (inactive) | 43 µM (inactive) | > 100 µM (inactive) | > 100 µM (inactive) | > 100 µM (inactive) | > 100 µM (inactive) | > 100 µM (inactive) | – | > 100 µM (inactive) | 44.4 µM (inactive) | > 73.8 µM (inactive) | > 100 µM (inactive)
COC(=O)C1CC2CCC1(O[Si](C(C)C)(C(C)C)C(C)C)C(O)C2 (stereo not drawn) | 28.6 µM (inactive) | 17.6 µM (inactive) | 16 µM (inactive) | 17.3 µM (inactive) | 16.9 µM (inactive) | 37 µM (inactive) | 17.7 µM (inactive) | 25.8 µM (inactive) | 21.8 µM (inactive) | 17.5 µM (inactive) | 16.5 µM (inactive) | 19.4 µM (inactive) | 20.9 µM (inactive) | 21.8 µM (inactive) | 17.9 µM (inactive) | 16.4 µM (inactive) | 16.6 µM (inactive) | 15 µM (inactive) | – | –
Cn1c2ccccc2c(=O)c2cccc(C(=O)NC(CS)C(=O)O)c21 (stereo not drawn) | > 100 µM (inactive) | > 100 µM (inactive) | > 100 µM (inactive) | > 100 µM (inactive) | 81.1 µM (inactive) | > 100 µM (inactive) | 60.8 µM (inactive) | > 100 µM (inactive) | – | 26.5 µM (inactive) | > 100 µM (inactive) | > 100 µM (inactive) | > 100 µM (inactive) | > 100 µM (inactive) | > 100 µM (inactive) | > 100 µM (inactive) | > 100 µM (inactive) | – | – | 43.2 µM (inactive)
CCN1CCCC(C#N)(c2ccccc2)CC1 (stereo not drawn) | > 100 µM (inactive) | > 100 µM (inactive) | > 100 µM (inactive) | > 100 µM (inactive) | > 100 µM (inactive) | – | – | > 100 µM (inactive) | – | > 100 µM (inactive) | > 100 µM (inactive) | > 100 µM (inactive) | > 100 µM (inactive) | > 100 µM (inactive) | – | > 100 µM (inactive) | > 100 µM (inactive) | > 100 µM (inactive) | > 100 µM (inactive) | –
CCOC(=O)c1cn(Cc2ccccc2)c(=O)n1Cc1ccccc1 | > 100 µM (inactive) | > 100 µM (inactive) | > 100 µM (inactive) | > 100 µM (inactive) | > 100 µM (inactive) | > 100 µM (inactive) | – | > 100 µM (inactive) | > 100 µM (inactive) | 40.2 µM (inactive) | > 100 µM (inactive) | > 100 µM (inactive) | > 100 µM (inactive) | > 100 µM (inactive) | > 100 µM (inactive) | – | > 100 µM (inactive) | > 100 µM (inactive) | > 100 µM (inactive) | > 100 µM (inactive)
C[C@@H]1C[C@@H]([C@H](O)CC2CC(=O)NC(=O)C2)C(=O)[C@@H](C)C1 [CYCLOHEXIMIDE] | 0.0366 µM (active) | 0.0202 µM (active) | 0.0933 µM (active) | 0.0532 µM (active) | 0.0372 µM (active) | 0.118 µM (active) | – | 0.0532 µM (active) | 0.0395 µM (active) | 0.0362 µM (active) | 0.0603 µM (active) | 0.0352 µM (active) | 0.0516 µM (active) | 0.0378 µM (active) | 0.0199 µM (active) | – | 0.0718 µM (active) | 0.0315 µM (active) | 0.0366 µM (active) | 0.0431 µM (active)
